Test results published in ChEMBL document CHEMBL3352227, “Synthesis, antimycobacterial and antibacterial evaluation of l-[(1R, 2S)-2-fluorocyclopropyl]fluoroquinolone derivatives containing an oxime functional moiety” (Eur J Med Chem, 2014).
Values after ≈ are worked out from the molar mass of the structure shown.

Columns and labels:
Assay type in all cases: functional
[1] = test system: Mycobacterium tuberculosis; test: Antimycobacterial activity against Mycobacterium tuberculosis H37Rv ATCC 27294 by MABA method
[2] = test system: Escherichia coli; test: Antibacterial activity against Escherichia coli ATCC 25922 after 18 to 24 hrs by standard twofold serial dilution method
[3] = test system: Escherichia coli; test: Antibacterial activity against Escherichia coli 12-1 after 18 to 24 hrs by standard twofold serial dilution method
[4] = test system: Escherichia coli; test: Antibacterial activity against extended-spectrum beta-lactamase producing Escherichia coli 12-2 after 18 to 24 hrs by standard twofold serial dilution method
[5] = test system: Escherichia coli; test: Antibacterial activity against extended-spectrum beta-lactamase producing Escherichia coli 12-3 after 18 to 24 hrs by standard twofold serial dilution method
[6] = test system: Escherichia coli; test: Antibacterial activity against extended-spectrum beta-lactamase producing Escherichia coli 12-14 after 18 to 24 hrs by standard twofold serial dilution method
[7] = test system: Escherichia coli; test: Antibacterial activity against extended-spectrum beta-lactamase producing Escherichia coli 12-15 after 18 to 24 hrs by standard twofold serial dilution method
[8] = test system: Klebsiella pneumoniae; test: Antibacterial activity against Klebsiella pneumoniae 12-1 after 18 to 24 hrs by standard twofold serial dilution method
[9] = test system: Klebsiella pneumoniae; test: Antibacterial activity against Klebsiella pneumoniae 12-2 after 18 to 24 hrs by standard twofold serial dilution method
[10] = test system: Klebsiella pneumoniae; test: Antibacterial activity against Klebsiella pneumoniae 12-4 after 18 to 24 hrs by standard twofold serial dilution method
[11] = test system: Klebsiella pneumoniae; test: Antibacterial activity against extended-spectrum beta-lactamase producin Klebsiella pneumoniae 12-3 after 18 to 24 hrs by standard twofold serial dilution method
[12] = test system: Klebsiella pneumoniae; test: Antibacterial activity against extended-spectrum beta-lactamase producin Klebsiella pneumoniae 12-4 after 18 to 24 hrs by standard twofold serial dilution method
[13] = test system: Klebsiella pneumoniae; test: Antibacterial activity against extended-spectrum beta-lactamase producin Klebsiella pneumoniae 12-7 after 18 to 24 hrs by standard twofold serial dilution method
[14] = test system: Klebsiella pneumoniae; test: Antibacterial activity against extended-spectrum beta-lactamase producin Klebsiella pneumoniae 12-14 after 18 to 24 hrs by standard twofold serial dilution method
[15] = test system: Pseudomonas aeruginosa; test: Antibacterial activity against Pseudomonas aeruginosa 12-12 after 18 to 24 hrs by standard twofold serial dilution method
[16] = test system: Pseudomonas aeruginosa; test: Antibacterial activity against Pseudomonas aeruginosa 12-14 after 18 to 24 hrs by standard twofold serial dilution method
[17] = test system: Staphylococcus aureus; test: Antibacterial activity against Staphylococcus aureus ATCC 25923 after 18 to 24 hrs by standard twofold serial dilution method
[18] = test system: Staphylococcus aureus; test: Antibacterial activity against methicillin-sensitive Staphylococcus aureus 12-1 after 18 to 24 hrs by standard twofold serial dilution method
[19] = test system: Staphylococcus aureus; test: Antibacterial activity against methicillin-sensitive Staphylococcus aureus 12-2 after 18 to 24 hrs by standard twofold serial dilution method
[20] = test system: Staphylococcus aureus; test: Antibacterial activity against methicillin-sensitive Staphylococcus aureus 12-4 after 18 to 24 hrs by standard twofold serial dilution method
[21] = test system: Staphylococcus aureus; test: Antibacterial activity against methicillin-sensitive Staphylococcus aureus 12-5 after 18 to 24 hrs by standard twofold serial dilution method
[22] = test system: Staphylococcus aureus; test: Antibacterial activity against methicillin-resistant Staphylococcus aureus 12-2 after 18 to 24 hrs by standard twofold serial dilution method
[23] = test system: Staphylococcus aureus; test: Antibacterial activity against methicillin-resistant Staphylococcus aureus 12-4 after 18 to 24 hrs by standard twofold serial dilution method
[24] = test system: Staphylococcus aureus; test: Antibacterial activity against methicillin-resistant Staphylococcus aureus 12-5 after 18 to 24 hrs by standard twofold serial dilution method
[25] = test system: Staphylococcus epidermidis; test: Antibacterial activity against methicillin-sensitive Staphylococcus epidermidis 12-1 after 18 to 24 hrs by standard twofold serial dilution method
[26] = test system: Staphylococcus epidermidis; test: Antibacterial activity against methicillin-sensitive Staphylococcus epidermidis 12-3 after 18 to 24 hrs by standard twofold serial dilution method
[27] = test system: Staphylococcus epidermidis; test: Antibacterial activity against methicillin-sensitive Staphylococcus epidermidis 12-6 after 18 to 24 hrs by standard twofold serial dilution method
[28] = test system: Staphylococcus epidermidis; test: Antibacterial activity against methicillin-sensitive Staphylococcus epidermidis 12-8 after 18 to 24 hrs by standard twofold serial dilution method
[29] = test system: Staphylococcus epidermidis; test: Antibacterial activity against methicillin-resistant Staphylococcus epidermidis 12-1 after 18 to 24 hrs by standard twofold serial dilution method
[30] = test system: Staphylococcus epidermidis; test: Antibacterial activity against methicillin-resistant Staphylococcus epidermidis 12-6 after 18 to 24 hrs by standard twofold serial dilution method
[31] = test system: Streptococcus pneumoniae; test: Antibacterial activity against Streptococcus pneumoniae ATCC 49619 after 18 to 24 hrs by standard twofold serial dilution method
[32] = test system: Streptococcus pneumoniae; test: Antibacterial activity against Streptococcus pneumoniae 12-18 after 18 to 24 hrs by standard twofold serial dilution method

SMILES	MIC [1] [µg/mL]	MIC [2] [µg/mL]	MIC [3] [µg/mL]	MIC [4] [µg/mL]	MIC [5] [µg/mL]	MIC [6] [µg/mL]	MIC [7] [µg/mL]	MIC [8] [µg/mL]	MIC [9] [µg/mL]	MIC [10] [µg/mL]	MIC [11] [µg/mL]	MIC [12] [µg/mL]	MIC [13] [µg/mL]	MIC [14] [µg/mL]	MIC [15] [µg/mL]	MIC [16] [µg/mL]	MIC [17] [µg/mL]	MIC [18] [µg/mL]	MIC [19] [µg/mL]	MIC [20] [µg/mL]	also measured
CO/N=C1/CN(c2c(F)cc3c(=O)c(C(=O)O)cn([C@@H]4C[C@@H]4F)c3c2Cl)CC1CN (stereo partly specified)	4 (≈ 9.07 µM)	0.125 (≈ 0.284 µM)	1 (≈ 2.27 µM)	64 (≈ 145 µM)	32 (≈ 72.6 µM)	64 (≈ 145 µM)	128 (≈ 290 µM)	0.25 (≈ 0.567 µM)	0.25 (≈ 0.567 µM)	0.25 (≈ 0.567 µM)	32 (≈ 72.6 µM)	16 (≈ 36.3 µM)	4 (≈ 9.07 µM)	32 (≈ 72.6 µM)	1 (≈ 2.27 µM)	16 (≈ 36.3 µM)	< 0.008	0.125 (≈ 0.284 µM)	0.125 (≈ 0.284 µM)	0.06 (≈ 0.136 µM)	MIC [21]: 0.125 µg/mL (≈ 0.284 µM); MIC [22]: 16 µg/mL (≈ 36.3 µM); MIC [23]: 16 µg/mL (≈ 36.3 µM); MIC [24]: 16 µg/mL (≈ 36.3 µM); MIC [25]: 0.125 µg/mL (≈ 0.284 µM); MIC [26]: 0.5 µg/mL (≈ 1.13 µM); MIC [27]: 0.125 µg/mL (≈ 0.284 µM); MIC [28]: 2 µg/mL (≈ 4.54 µM); MIC [29]: 4 µg/mL (≈ 9.07 µM); MIC [30]: 4 µg/mL (≈ 9.07 µM); MIC [31]: 0.25 µg/mL (≈ 0.567 µM); MIC [32]: 1 µg/mL (≈ 2.27 µM)
CCO/N=C1/CN(c2c(F)cc3c(=O)c(C(=O)O)cn([C@@H]4C[C@@H]4F)c3c2Cl)CC1CN (stereo partly specified)	4 (≈ 8.79 µM)	0.5 (≈ 1.1 µM)	2 (≈ 4.4 µM)	128 (≈ 281 µM)	32 (≈ 70.4 µM)	128 (≈ 281 µM)	> 128	0.5 (≈ 1.1 µM)	1 (≈ 2.2 µM)	1 (≈ 2.2 µM)	32 (≈ 70.4 µM)	32 (≈ 70.4 µM)	4 (≈ 8.79 µM)	64 (≈ 141 µM)	4 (≈ 8.79 µM)	32 (≈ 70.4 µM)	0.5 (≈ 1.1 µM)	0.25 (≈ 0.55 µM)	0.125 (≈ 0.275 µM)	0.25 (≈ 0.55 µM)	MIC [21]: 0.25 µg/mL (≈ 0.55 µM); MIC [22]: 16 µg/mL (≈ 35.2 µM); MIC [23]: 16 µg/mL (≈ 35.2 µM); MIC [24]: 16 µg/mL (≈ 35.2 µM); MIC [25]: 0.5 µg/mL (≈ 1.1 µM); MIC [26]: 1 µg/mL (≈ 2.2 µM); MIC [27]: 0.25 µg/mL (≈ 0.55 µM); MIC [28]: 2 µg/mL (≈ 4.4 µM); MIC [29]: 4 µg/mL (≈ 8.79 µM); MIC [30]: 16 µg/mL (≈ 35.2 µM); MIC [31]: 1 µg/mL (≈ 2.2 µM); MIC [32]: 4 µg/mL (≈ 8.79 µM)
NCC1CN(c2c(F)cc3c(=O)c(C(=O)O)cn([C@@H]4C[C@@H]4F)c3c2Cl)C/C1=N/OCc1ccccc1 (stereo partly specified)	16 (≈ 31 µM)	0.5 (≈ 0.967 µM)	32 (≈ 61.9 µM)	> 128	32 (≈ 61.9 µM)	> 128	> 128	2 (≈ 3.87 µM)	2 (≈ 3.87 µM)	2 (≈ 3.87 µM)	> 128	32 (≈ 61.9 µM)	16 (≈ 31 µM)	> 128	8 (≈ 15.5 µM)	64 (≈ 124 µM)	0.25 (≈ 0.484 µM)	0.5 (≈ 0.967 µM)	0.5 (≈ 0.967 µM)	0.25 (≈ 0.484 µM)	MIC [21]: 0.5 µg/mL (≈ 0.967 µM); MIC [22]: 0.5 µg/mL (≈ 0.967 µM); MIC [23]: 0.5 µg/mL (≈ 0.967 µM); MIC [24]: 0.5 µg/mL (≈ 0.967 µM); MIC [25]: 0.5 µg/mL (≈ 0.967 µM); MIC [26]: 1 µg/mL (≈ 1.93 µM); MIC [27]: 0.5 µg/mL (≈ 0.967 µM); MIC [28]: 64 µg/mL (≈ 124 µM); MIC [29]: 0.5 µg/mL (≈ 0.967 µM); MIC [30]: 64 µg/mL (≈ 124 µM); MIC [31]: 1 µg/mL (≈ 1.93 µM); MIC [32]: 8 µg/mL (≈ 15.5 µM)
